Legend:
Assay type in all cases: cell-based
[1] = tested on: Staphylococcus aureus; assay: Micromax assay of DNA fragmentation by DNase released with lysostaphin after azithromycin (Example 3); conditions: lysostaphin alone 10 μg/ml 1 min; both strains
Protocol: In an exemplification of this principal, two strains of S. aureus growing in Mueller-Hinton agar with 5% sheep blood were assayed. One strain was susceptible to the macrolide azithromycin (an inhibitor of protein synthesis) (FIGS. 13-15) and the other strain was a clinical isolate resistant to azithromycin (FIGS. 16-18). The purpose was to rapidly distinguish susceptible and non-susceptible strains to azithromycin. Cultures were processed direct from standard growing agar plates 18-24 h and it was not necessary the cells being exponentially growing previously to the assay.
Each of these strain was subjected to four treatments. One portion of both strains was incubated with azithromycin at 2 μg/ml for 120 min; 2 μg/ml being indicated by the CLSI as the breakpoint of susceptibility to azithromycin. The cells were then lysed to release nucleoids and images of FIGS. 13 and 16 were generated. Another portion of each strain was incubated with lysostaphin at 10 μg/ml for 1 min. FIGS. 14 and 17 depict the nucleoids released in each strain for this treatment. Still another portion was incubated with Azithromycin at 2 μg/ml for 120 min followed by lysostaphin at 10 μg/ml for 1 min, without removing the azithromycin. The assays for these treatments can be seen at FIGS. 15 and 18. A final portion was left without either antibiotic.
After the incubation, the cells were processed using the variant of a Micromax technology to lyse cells with affected cell walls. As indicated previously, samples from cells from the culture are immersed in an agarose microgel on a slide and incubated with a specific lysing solution to remove the cell wall in those cells affected by lysostaphin and release in the microgel the nucleoids contained inside the bacteria. These are dried, stained with a highly sensitive fluorochrome for DNA like SYBR Gold and visualized under fluorescence microscopy.

[2] = tested on: Pseudomonas aeruginosa; assay: Variant Micromax assay of cell enlargement by ceftazidime after tobramycin (Example 7); conditions: ceftazidime alone 0.5 μg/ml 60 minutes; both strains
Protocol: As an example, two strains of Pseudomonas aeruginosa exponentially growing in Mueller-Hinton broth were assayed. These strains were both susceptible to the β-lactam ceftazidime, which inhibits peptidoglycan synthesis. One strain was susceptible and the other resistant to the aminoglycoside tobramycin (an inhibitor of protein synthesis). For the purpose of rapidly distinguishing the susceptible and the resistant strain to tobramycin each strain was subjected to four treatments.
A portion of each strain was incubated with tobramycin at 4 μg/ml (the CLSI breakpoint of susceptibility) for 75 minutes. An assay of this portion is depicted at FIGS. 31 and 34. Another portion of each strain was incubated with ceftazidime at 0.5 μg/ml for 60 minutes. An assay of this portion is depicted at FIGS. 32 and 35. Still another portion of both strains was incubated with tobramycin at 4 μg/ml for 15 minutes followed by ceftazidime at 0.5 μg/ml for 60 minutes, without removing the tobramycin. Assays of these strains can be seen at FIGS. 33 and 36, respectively. A final portion of each strain was not treated with either antibiotic.
After incubation with the antibiotics, cells were processed using a variant Micromax technology to visualize the enlargement or not of the bacteria. Samples from each culture were immersed in an agarose microgel on a slide, dried, stained with a high sensitive fluorochrome for DNA like SYBR Gold and visualized under fluorescence microscopy to visualize cell shape and size.

[3] = tested on: Escherichia coli; assay: Micromax assay of ciprofloxacin-induced DNA fragmentation after a protein synthesis inhibitor (Example 1)
Protocol: As an exemplification of the principals previously described, two strains of Escherichia coli exponentially growing in Mueller-Hinton broth were assayed (FIGS. 1-6). The first strain of Escherichia coli was a TG1 strain susceptible to both the aminoglycoside tobramycin (an inhibitor of protein synthesis) and the quinolone ciprofloxacin (an agent which induces DNA fragmentation by trapping of topoisomerases in DNA) (FIGS. 1-3). The second strain was a clinical isolate resistant to tobramycin and susceptible to ciprofloxacin (FIGS. 4-6). Four treatments were applied to each strain to rapidly distinguish the susceptible and the resistant strain to tobramycin.
One portion of both bacterial strains was incubated with tobramycin at 4 μg/ml for 40 minutes (FIGS. 1 and 4), a dosage indicated by the CLSI as the breakpoint of susceptibility to tobramycin in the standard antibiogram based on microdilution. Another portion of both strains was incubated with ciprofloxacin at 1 μg/ml for 30 min (FIGS. 2 and 5). Still another portion of both strains was incubated with tobramycin at 4 μg/ml for 10 min followed by ciprofloxacin at 1 μg/ml for 30 min, without removing the tobramycin (FIGS. 3 and 6). A final portion was left with no antibiotic.
After each incubation cells were processed using the variant of the Micromax technology to visualize the nucleoids, i.e. bacterial chromosomal DNA, in all the cells of the population. Cells from each culture were immersed in an agarose microgel on a slide and incubated with a specific lysing solution to remove the cell wall in all the cells and release in the microgel the nucleoids contained inside the bacteria. These are dried, stained with a high sensitive fluorochrome for DNA like SYBR Gold and visualized under fluorescence microscopy. FIGS. 1-6 depicts representative images captured under each of the conditions described below.
The above described methodology was employed to rapidly determine the susceptibility of 12 strains of E. coli to tobramycin. One portion of each bacterial strain was incubated with tobramycin at the susceptibility breakpoint dosage, 4 μg/ml, for 40 min. A portion of each strain was incubated with ciprofloxacin at 1 μg/ml for 30 min. Still another portion of each strain was incubated with tobramycin at 4 μg/ml for 10 min followed by ciprofloxacin at 1 μg/ml for 30 min, without removing the tobramycin. A final portion of each strain was left with no antibiotic. E. coli strains were identified as susceptible or not based on the levels of DNA fragmentation in the portion of each strain incubated with ciprofloxacin and the portion incubated with tobramycin and ciprofloxacin.
The principals exemplified in Example 1 were confirmed with the aminoglycoside amikacin. Briefly, a susceptible and resistant strain of E. coli were exposed to similar conditions to those described in Example 1, except that amikacin was utilized as the protein synthesis inhibiting antibiotic. Specifically, each was strain subjected to four treatments. One portion received no antibiotics, and another portion received only a quinolone, such as ciprofloxacin or norfloxacin to induce DNA fragmentation. Still another portion received the protein synthesis inhibiting antibiotic aminoglycoside amikacin, followed by the quinolone. Another portion received only amikacin. A final portion received neither antibiotic.
The principals exemplified in Example 1 were further confirmed with the aminoglycoside gentamicin. Briefly, the rapid test was performed on 15 isolated E. coli strains according to the methodology described above, except that gentamicinin was utilized as the protein synthesis inhibiting antibiotic. Suppressed DNA fragmentation were used to characterize bacterial susceptibility and those characterizations were verified with the standard antibiogram for gentamicin by microdilution. […]

[4] = tested on: Enterococcus faecalis; assay: Variant Micromax assay of cell lysis by lysozyme after erythromycin (Example 6)
Protocol: As an example, two strains of Enterococcus faecalis exponentially growing in Mueller-Hinton broth were incubated under four different conditions and then assayed. […] Each strain was subjected to four treatments for the purpose of rapidly distinguishing the susceptible and the resistant strain to erythromycin.
The dose was that indicated by the CLSI as the breakpoint of susceptibility to erythromycin in the standard antibiogram based on microdilution. Another portion of both strains was incubated with lysozyme 1 mg/ml, 10 min at 37° C. […]
(§1) After incubation with lysozyme, the cells were processed using a variant of the Micromax technology to visualize the nucleoids, i.e. spreading of the bacterial chromosomal DNA, in all the cells of the population. Samples from the cultures were immersed in an agarose microgel on a slide and incubated with a specific lysing solution to remove the cell wall in all the cells and release in the microgel the nucleoids contained inside the bacteria. These are dried, stained with a highly sensitive fluorochrome for DNA like SYBR Gold and visualized under fluorescence microscopy.

[5] = tested on: Escherichia coli; assay: Variant Micromax assay of cell enlargement by low-dose mitomycin C after tobramycin (Example 8); conditions: mitomycin C alone 0.5 μg/ml 60 minutes; both strains
Protocol: As an example, two strains of Escherichia coli exponentially growing in Mueller-Hinton broth were incubated under four different conditions and then assayed. One strain was susceptible and the other resistant to the aminoglycoside tobramycin (an inhibitor of protein synthesis). For the purpose of rapidly distinguishing susceptible and non-susceptible strains to tobramycin each strain was incubated under four conditions.
A portion of each strain was incubated with tobramycin at 4 μg/ml for 90 minutes. As described previously, this dose is indicated by the CLSI as the breakpoint of susceptibility to tobramycin in the standard antibiogram based on microdilution. Another portion of both strains was incubated in Mitomycin C at 0.5 μg/ml for 60 minutes. Still another portion of each strain was incubated with tobramycin at 4 μg/ml for 30 minutes followed by mitomycin C at 0.5 μg/ml for 60 minutes, without removing the tobramycin. A final portion of both strains was not incubated with either antibiotic.
After the incubation, cells were processed using a variant Micromax technology to visualize any enlargement or not of the bacteria. Samples from cells from the culture were immersed in an agarose microgel on a slide, dried, stained with a highly sensitive fluorochrome for DNA like SYBR Gold and visualized under fluorescence microscopy to visualize cell shape and size. Images were similar those correspondent to the previous figure.

[6] = tested on: Escherichia coli; assay: Micromax assay of mitomycin C-induced DNA fragmentation after tobramycin (Example 2); conditions: mitomycin C alone 50 μg/ml 60 min; both strains
Protocol: FIGS. 7-9 depict a TG1 strain susceptible to the aminoglycoside tobramycin, an inhibitor of protein synthesis, and mitomycin C, an agent which induces DNA damage. The other strain illustrated in FIGS. 10-12 was a clinical isolate resistant to tobramycin.
One portion of both bacterial strains was incubated with tobramycin at 4 μg/ml for 90 min (FIGS. 7 and 10), a dosage indicated by the CLSI as the breakpoint of susceptibility to tobramycin in the standard antibiogram based on microdilution. Another portion of both strains was incubated with mitomycin C at 50 μg/ml for 60 min (FIGS. 8 and 11). Still another portion of both strains was incubated with tobramycin at 4 μg/ml for 30 min followed by mitomycin C at 50 μg/ml for 60 min, without removing the tobramycin (FIGS. 9 and 12). A final portion was left with no antibiotic.
as §1, with “incubation,” for “incubation with lysozyme, the”, “visualize” for “visualize the”, “i.e.” for “i.e. spreading of the”, “from cells from” for “from”, “culture are” for “cultures were”, “microscopy, Nucleoids from E. coli obtained using the Micromax assay are represented in FIGS. 7-12, FIGS. 7-9 correspond to a strain susceptible to tobramycin (TG1) and FIGS. 10-12 to a strain resistant to tobramycin.” for “microscopy.”

[7] = tested on: Pseudomonas aeruginosa; assay: Variant Micromax assay of cell wall damage by meropenem after tobramycin (Example 5); conditions: meropenem alone 0.2 μg/ml 60 min; both strains
Description: As an exemplification of this principal, FIGS. 19-24 illustrates assays of two strains of Pseudomonas aeruginosa exponentially growing in Mueller-Hinton broth. Both strains were both susceptible to the β-lactam meropenem, which inhibits peptidoglycan synthesis. One strain was susceptible (FIGS. 19-21) and the other resistant (FIGS. 22-24) to the aminoglycoside tobramycin (inhibitor of protein synthesis).
For the purpose of rapidly distinguishing susceptible and resistant (i.e. non-susceptible) strains to tobramycin each strain was subjected to four treatments. A portion of each strain was incubated with tobramycin at 4 μg/ml for 75 min (FIGS. 19 and 22). The dose utilized, was indicated by the CLSI as the breakpoint of susceptibility to tobramycin. FIGS. 20 and 23 illustrate an assay from another portion of each strain, which was incubated with Meropenem at 0.2 μg/ml for 60 min. FIGS. 21 and 24, illustrate assays from still another portion of both strains which was incubated with tobramycin at 4 μg/ml for 15 min followed by meropenem at 0.2 μg/ml for 60 min, without removing the tobramycin. Still another portion of both strains was maintained without the addition of either antibiotic.
After incubation cells were processed using a variant Micromax technology to visualize the affectation or not of the cell wall based on the release or not of the nucleoids contained inside the bacteria. In the same manner described previously, samples from cells from the culture are immersed in an agarose microgel on a slide and incubated with a specific lysing solution that removes the cell wall only in those bacteria whose peptidoglycan was affected, thus releasing in the microgel the nucleoids contained inside. […] The processed bacteria in microgel are dried, stained with a high sensitive fluorochrome for DNA like SYBR Gold and visualized under fluorescence microscopy.

[8] = rapid test, confirmed by microdilution antibiogram, 12 strains for tobramycin, 15 for gentamicin

In the case of lysostaphin, the “DNA fragmentation of released nucleoids” value [1] is reported as “release of nucleoids with a large extent of DNA fragmentation”.

With `CC(C)(O/N=C(\C(=O)N[C@@H]1C(=O)N2C(C(=O)[O-])=C(C[n+]3ccccc3)CS[C@H]12)c1csc(N)n1)C(=O)O` [ceftazidime] the cell enlargement [2] was “significant cell enlargement”.

For gentamicin, the “E. coli strains identified as non-susceptible (resistant)” value [3, 8] was 5 and the “E. coli strains identified as susceptible” value [3, 8] was 10.

For `NCC[C@H](O)C(=O)N[C@@H]1C[C@H](N)[C@@H](O[C@H]2O[C@H](CN)[C@@H](O)[C@H](O)[C@H]2O)[C@H](O)[C@H]1O[C@H]1O[C@H](CO)[C@@H](O)[C@H](N)[C@H]1O` [amikacin], the “outcome of rapid susceptibility test with another protein synthesis inhibitor” value ([3]; inhibitor followed by a quinolone, susceptible and resistant E. coli) was “successfully determined”.

`O=C(O)c1cn(C2CC2)c2cc(N3CCNCC3)c(F)cc2c1=O` [ciprofloxacin] was tested, and the “DNA fragmentation of nucleoids” value ([3]; ciprofloxacin alone 1 μg/ml 30 min, both strains) was “nucleoids with extensive fragmented DNA” and the “inhibitory response on lysis by lysozyme” value ([4]; incubation with quinolones instead of a protein synthesis inhibitor) was “has not been obtained”.

In the case of lysozyme, the “partially lysed cells with spreading nucleoid fibers” value ([4]; lysozyme 1 mg/ml 10 min at 37° C. and lysing solution, no erythromycin, erythromycin-resistant strain) is reported as 97.36% and the “lysed cells releasing nucleoid fibers” value ([4]; lysozyme 1 mg/ml 10 min at 37° C. and lysing solution, no erythromycin, erythromycin-susceptible strain) is reported as 92.13%.

For `CO[C@@]12[C@H](COC(N)=O)C3=C(C(=O)C(C)=C(N)C3=O)N1C[C@@H]1N[C@@H]12` [mitomycin C], the cell enlargement [5] was “significant cell enlargement” and the “DNA fragmentation of nucleoids” value [6] was “nucleoids with fragmented DNA in both strains”.

In the case of `C[C@@H](O)[C@H]1C(=O)N2C(C(=O)O)=C(S[C@@H]3CN[C@H](C(=O)N(C)C)C3)[C@H](C)[C@H]12` [meropenem], the “release of nucleoids (cell wall damage)” value [7] is reported as “releasing of nucleoids due to affectation of the cell wall”.

Reference: patent US10472663B2, “Procedure for the rapid determination of bacterial susceptibility to antibiotics that inhibit protein synthesis” (ABM TECHNOLOGIES, LLC, priority 2015, dated 2019)
